Results taken from US9726669B2, “Biomarkers for determining sensitivity of breast cancer cells to HER2-targeted therapy” (PIERIAN HOLDINGS, INC., priority 2009, dated 2017).

Key:
VEGF = settings: with chemotherapy; patients with colorectal, breast, and lung cancers; cited from earlier work
[1] = system: ER-positive breast cancer; settings: cited from earlier work
MDA MB 468 cells = assay: COPIA per-cell RTK activation in growth factor stimulated MDA-MB-468 cells; assay type: cell-based, human; settings: MDA MB 468 cells stimulated with EGF
Procedure: (§1) SKBr3, MDA-MB-468, T47D and BT474 cell lines were obtained from ATCC. Cells were grown in the following growth media in 100 mm tissue culture plates at 37° C. in 5% CO2: SKBr3 McCoy's 5A medium with 10% FBS, MDA-MB-468: DMEM, 10% FBS, BT474: DMEM, 10B FBS, T47D: RPMI 1640, 10% FBS, 0.2 U/ml bovine insulin. Cells were harvested at 70-80% confluency with gentle detachment process (trypsin treatment+subsequent inactivation) and were subsequently counted and washed with 1×PBS. Cell stimulation was performed with 100 uM EGF or 20 uM heregulin β or both in serum-free growth media for 5 min. Stimulated cells were washed with 1×PBS and then were lysed (lysis buffer: 50 mM Tris, pH 7.4, 150 mM NaCl, 1% Trition X-100 and 200 mM Na3VO4) and kept on ice for 30 min.
(§2) Slides were first rinsed two times with TBST (50 mM Tris/150 mM NaCl/0.1% Tween-20, pH 7.2-7.4) before blocking them with 80 ul of Whatman Blocking Buffer 1 hr at RT or O/N at 4 C. After the blocking process, slides were washed 2 times with TBST. […]

T47D cells = assay: COPIA RTK activation in growth factor stimulated T47D cells; assay type: cell-based, human; settings: T47D cells stimulated with EGF or HRG
Procedure: as §1, §2

Chain of VEGF (P15692 207-311 limits assumed): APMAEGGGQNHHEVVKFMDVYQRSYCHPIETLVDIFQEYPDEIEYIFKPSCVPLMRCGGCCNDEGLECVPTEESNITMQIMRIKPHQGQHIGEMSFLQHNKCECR

## Bevacizumab
VEGF
  survival: improve survival

## CC/C(=C(\c1ccccc1)c1ccc(OCCN(C)C)cc1)c1ccccc1 [Tamoxifen]
[1]; adjuvant therapy studies
  reduction in the odds of recurrence and mortality: 40% to 50%
[1]; patients with metastatic disease
  patients with temporary remission: 30% to 50%

## EGF: epidermal growth factor, stimulatory growth factor used to induce HER1 phosphorylation (NSDSECPLSHDGYCLHDGVCMYIEALDKYACNCVVGYIGERCQYRDLKWWELR; Epidermal growth factor; UniProt P01133 971-1023, looked up)
MDA MB 468 cells
  level of pHER1 per cell: 992.5 RFU/cell
T47D cells
  HER1 activation: resulted in both HER1 and HER2 activation
  HER2 activation: resulted in both HER1 and HER2 activation
